# Results from patent US5936065A, “CS-1 peptidomimetics, compositions and methods of using the same” (Cytel Corporation, priority 1995, dated 1999).
# Square brackets hold non-standard residues; d marks the D form. Peptide text beside a SMILES is read from it. * marks the point of attachment. PhAc = O=C(Cc1ccccc1)*
# Experiments:
# BALB/c mice = assay: Adoptive transfer delayed type hypersensitivity (oxazolone) in mice; assay type: in vivo, mouse; details: for reduction of inflammation (swelling diameter at challenge site), initial study: 6 mg/kg/day subcutaneously by implanted pump for 24 hours, ear swelling 24 hours after challenge, FIG. 5
# Protocol: An adoptive transfer delayed-type hypersensitivity murine model has been developed using splenic T cells primed to oxazolone. This model is described in Elices et al., Clin. Exp. Rheum., 11(Suppl. 8):577-580 (1993), whose procedures were followed here.
# Thus, BALB/c mice were shaved on the belly and painted (50 μl on the belly and 5 μl on each paw) with three percent oxazolone in acetone/olive oil (4:1) at days zero and 1. At day 5, the mice were sacrificed, their spleens removed, and splenic T cells were obtained via nylon wool columns.
# Normal saline or saline containing 25×10^6 /animal of the oxazolone-immune T cells were separately injected into naive mice. The mice were then challenged by painting 10 μl of 2 percent oxazolone onto one ear each. All procedures were carried out under sterile conditions and in endotoxin-free buffers.
# Prior to challenge or saline injection, the mice were implanted with pumps that subcutaneously administered normal saline, normal saline containing the compound, Compound ID No. 896.52, N-phenylacetyl-Leu-Asp-Phe-D-Pro-NH2, or normal saline containing a compound with a scrambled sequence continually at 6 mg/kg/day for a 24-hour time period. The swelling diameter at the site of challenge or saline injection was measured with a microcaliper 24 hours thereafter.
# An expanded study was carried out as described above except that a scrambled compound control was not used as a control for further inhibitor compounds of Table 1 with larger groups of mice. Statistical analyses were carried out versus injection of vehicle alone.
# [1] = test system: New Zealand white rabbits; assay: Rabbit heterotopic cardiac allograft model; assay type: in vivo; details: for Expression on Coronary Arteries: ICAM-1 / Expression on Coronary Arteries: Macrophages / Expression on Coronary Arteries: T cells / Expression on Coronary Arteries: Total Fibronectin / Expression on Coronary Arteries: VCAM-1 / Expression on Coronary Arteries: MHC Class II: 1 mg/kg s.c., allograft, 7 to 8 days; for Expression on Coronary Arteries: MHC Class II: immunohistochemistry; on Expression on Coronary Arteries: ICAM-1: key: -: negative; ±: minimal; +: little; ++: moderately abundant; +++: very abundant; on Expression on Coronary Arteries: Macrophages: key: -: negative; ±: minimal; +: little; ++: moderately abundant; +++: very abundant; on Expression on Coronary Arteries: T cells: key: -: negative; ±: minimal; +: little; ++: moderately abundant; +++: very abundant; on Expression on Coronary Arteries: Total Fibronectin: key: -: negative; ±: minimal; +: little; ++: moderately abundant; +++: very abundant
# From the text: New Zealand white rabbit SPF hearts were allografted into the necks of similar rabbits to assay a graft-vs-host immunorejection model and the affect of a contemplated compound on that immunoinflammatory response.
# New Zealand white female rabbits (Charles River Lab., Saint Laurent, Quebec), between 3.5 and 4 kg underwent heterotopic cardiac transplant following an experimental protocol previously described [Alonso et al., Am. J. Pathol., 87:415-442 (1977); Clausell et al., Circulation, 89:2768-2779 (1994)]. The animals were unselected to favor an HLA-mismatch, the host rabbits were Pasteurella-free and the donors, outbred animals. Both host and donor rabbits were fed Purina 5321-0.5 percent cholesterol diet (Research Diets Inc., New Brunswick, N.J.), a strategy that has proven useful in accelerating the process of allograft arteriopathy [Alonso et al., Am. J. Pathol., 87:415-442 (1977)]. The diet was commenced four days prior to the transplant and continued in the recipient of the transplant until the completion of the experimental period.
# The technique of heterotopic cardiac transplantation has been previously described [Clausell et al., Circulation, 89:2768-2779 (1994)]. Briefly, a vertical incision was performed in the anterior aspect of the neck of the recipient rabbit and the left common carotid artery and the ipsilateral external jugular vein were isolated. The cardiac allograft was placed in the neck by anastomosing the aorta end-to-side to the recipient's carotid artery and the pulmonary end-to-side to the recipient's external jugular vein, following a total period of ischemia for the donor hearts of approximately 30 minutes. Postoperative care was in compliance with the Principles of Laboratory Animal Care formulated by the Canadian National Society for Medical Research.
# Beginning the day of the transplant, the animals were randomized and treated with either scrambled compound (control group) at 1 mg/kg s.c. or the inhibitor compound at 1 mg/kg s.c. The doses of the compounds were empirically extrapolated to the in vivo model based on preliminary in vitro studies, of Table 1. No other immunosuppression therapy was administered. The grafts were monitored daily by palpation and maintained for 7 to 8 days, a previously described endpoint that was associated with myocardial rejection (impaired cardiac contractility) and development of the allograft arteriopathy in this model [Clausell et al., Circulation, 89:2768-2779 (1994)]. A total of fourteen animals were studied in the control (n=7) and treated (n=7) groups.
# The animals were sacrificed using a lethal dose of euthanol (480 mg i.v.) (MTC Pharmaceutical, Cambridge, ON), host and donor hearts were removed, and the coronary arteries were perfused with saline through the aorta, followed by light fixation by perfusion with 2 percent paraformaldehyde (Sigma, St, Louis, Mo.). […] Different sections of the hearts were either saved in 10 percent formalin (BDH Inc., Toronto, ON) for light microscopy studies or immediately frozen in O.T.C. Compound Tissue Tek (Miles Inc., Elkart, Ind.) for specific immunohistochemistry studies.
# Tissue specimens from the donor hearts were stained with hematoxylin:eosin for histological grading of rejection according to a modified Billingham's criteria [Billingham, Hum. Pathol., 10:367-386 (1979)]. The sections were graded by a pathologist without knowledge of whether the donor hearts came from control or inhibitor compound treated animals.
# Three different paraffin-embedded tissue sections from host and donor hearts from both control and treated rabbits were stained by the Movat pentachrome method for light microscopy. Morphometric analysis was performed using a Zeiss microscope attached to a computer-generated video analysis system (Perceptics Inc., NuVision software), as described in Clausell et al., Circulation, 89:2768-2779 (1994). […]
# asthmatic sheep = assay: Treatment of asthmatic sheep (Ascaris suum antigen, double blind cross-over); assay type: in vivo; details: for PC400, carbachol dosage required to increase SRL 4-fold: 24 hours after challenge, pre-challenge values about 20-23 BU; for specific lung resistance (SRL) after challenge: nebulized 1 mg/kg twice a day for three days, 0.5 hours prior to and four hours post challenge on day 4, FIG. 7
# Protocol: Six asthmatic sheep were treated in a double blind cross-over study. […] This study was carried out generally as described in Abraham et al., J. Clin. Invest., 93:776-787 (1994).
# The inhibitor compound used here was Compound ID No. 896.52, N-phenylacetyl-Leu-Asp-Phe-D-Pro-NH2, with a control compound that comprised the previously described compound having the same residues in a scrambled sequence. The vehicle for the nebulized compounds was phosphate-buffered saline. The compounds were administered at a dose of 1 mg/kg each, twice a day for three days prior to challenge, as well as 0.5 hours prior to and four hours post challenge on day 4. Because this was a crossover study, each animal received one or the other treatment, followed by a rest and then the other treatment. Each animal therefore served as its own control.
# Post challenge airway responsiveness was also assayed. Here, specific lung resistance, SRL, returned to baseline values 24 hours after challenge, however, the sheep were hyperresponsive to inhaled carbachol at that time.
compound,measurement,setting,value
"CC(C)C[C@H](NC(=O)Cc1ccccc1)C(=O)N[C@@H](CC(=O)O)C(=O)N[C@@H](Cc1ccccc1)C(=O)N1CCC[C@@H]1C(N)=O [896.52, N-phenylacetyl-Leu-Asp-Phe-D-Pro-NH2] (PhAc-LDF[dP]-NH2)","reduction of inflammation (swelling diameter at challenge site), initial study",BALB/c mice,reduced this type of CS-1/VLA-4-mediated immunoinflammation
same,"Percent Inhibition of post-challenge swelling, expanded study","BALB/c mice; versus vehicle alone, implanted pump, 24 hours",36%
same,Expression on Coronary Arteries: ICAM-1,[1],±
same,Expression on Coronary Arteries: Macrophages,[1],±
same,Expression on Coronary Arteries: T cells,[1],±
same,Expression on Coronary Arteries: Total Fibronectin,[1],±
same,Expression on Coronary Arteries: VCAM-1,[1],±
same,Expression on Coronary Arteries: MHC Class II,[1],±
same,Baseline (rabbit own host heart) of incidence of intimal thickening,[1],12%
same,Baseline (rabbit own host heart) of severity of intimal thickening,[1],12%
same,"PC400, carbachol dosage required to increase SRL 4-fold",asthmatic sheep,about 27 BU
same,specific lung resistance (SRL) after challenge,asthmatic sheep,less of a change from baseline specific lung resistance
"CC(C)C[C@H](NC(=O)[C@H](CC(=O)O)NC(=O)Cc1ccccc1)C(=O)N[C@@H](Cc1ccccc1)C(=O)N1CCC[C@@H]1C(N)=O [N-phenylacetyl-Asp-Leu-Phe-D-Pro-NH2, reference compound] (PhAc-DLF[dP]-NH2)","reduction of inflammation (swelling diameter at challenge site), initial study",BALB/c mice,no reduction of inflammation
same,Expression on Coronary Arteries: ICAM-1,[1],+
same,Expression on Coronary Arteries: Macrophages,[1],+
same,Expression on Coronary Arteries: T cells,[1],++
same,Expression on Coronary Arteries: Total Fibronectin,[1],++
same,Expression on Coronary Arteries: VCAM-1,[1],+
same,Expression on Coronary Arteries: MHC Class II,[1],++
same,Baseline (rabbit own host heart) of incidence of intimal thickening,[1],1%
same,Baseline (rabbit own host heart) of severity of intimal thickening,[1],12%
same,"PC400, carbachol dosage required to increase SRL 4-fold",asthmatic sheep,about 12 BU
same,specific lung resistance (SRL) after challenge,asthmatic sheep,had an increase in that pulmonary function
